These results are taken from publication PMC12155096 (International Journal of Molecular Sciences, 2025).

SMILES strings stand for the structures. Like-named read-outs stand apart in the source and are kept apart here.

For one series, the target named is T1, human CYP1A2 (Homo sapiens, UniProt P05177).
T1 sequence (P05177 1-516): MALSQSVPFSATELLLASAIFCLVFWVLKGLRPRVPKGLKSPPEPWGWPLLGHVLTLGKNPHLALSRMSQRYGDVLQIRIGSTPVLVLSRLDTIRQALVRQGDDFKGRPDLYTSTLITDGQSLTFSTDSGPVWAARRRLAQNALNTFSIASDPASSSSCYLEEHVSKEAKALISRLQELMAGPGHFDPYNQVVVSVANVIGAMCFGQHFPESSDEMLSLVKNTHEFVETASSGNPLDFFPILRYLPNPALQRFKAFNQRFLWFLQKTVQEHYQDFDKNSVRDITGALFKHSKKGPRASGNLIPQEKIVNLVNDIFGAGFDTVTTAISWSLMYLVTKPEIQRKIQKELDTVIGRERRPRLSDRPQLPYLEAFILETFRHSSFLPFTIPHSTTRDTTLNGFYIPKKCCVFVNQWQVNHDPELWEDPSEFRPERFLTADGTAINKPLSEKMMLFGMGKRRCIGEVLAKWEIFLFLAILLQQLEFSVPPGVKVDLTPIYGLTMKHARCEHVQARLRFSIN
Description: biochemical.

The next series deals with human CYP2C19 (Homo sapiens, UniProt P33261). Description: biochemical.
The target of the next series is human CYP2C9 (Homo sapiens, UniProt P11712). Description: biochemical.
A further series deals with CYP3A4 (Homo sapiens, UniProt P08684). Description: biochemical.
The target of another series is human CYP2D6 (Homo sapiens, UniProt P10635).
Setting [1] is: CYP1A2 AC50 (half-maximal activity concentration).
The mark [2] stands for this setting: CYP2C19 AC50 (half-maximal activity concentration).
[3] abbreviates: CYP2C9 AC50 (half-maximal activity concentration).
The mark [4] stands for this setting: CYP3A4 AC50 (half-maximal activity concentration).

Sequence of human CYP2C19 (P33261 whole entry): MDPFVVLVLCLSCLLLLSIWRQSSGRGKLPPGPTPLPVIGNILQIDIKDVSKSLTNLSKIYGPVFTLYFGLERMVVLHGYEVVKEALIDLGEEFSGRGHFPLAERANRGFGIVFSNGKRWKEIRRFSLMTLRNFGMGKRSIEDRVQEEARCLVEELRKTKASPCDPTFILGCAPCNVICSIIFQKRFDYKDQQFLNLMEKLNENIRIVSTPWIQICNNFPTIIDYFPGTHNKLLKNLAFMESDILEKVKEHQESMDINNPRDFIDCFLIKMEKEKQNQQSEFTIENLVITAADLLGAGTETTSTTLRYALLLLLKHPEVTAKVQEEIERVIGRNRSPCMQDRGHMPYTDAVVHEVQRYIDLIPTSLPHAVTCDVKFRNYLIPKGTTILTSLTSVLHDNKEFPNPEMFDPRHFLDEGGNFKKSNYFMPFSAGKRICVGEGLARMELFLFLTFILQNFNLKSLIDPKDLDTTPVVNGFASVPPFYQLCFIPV
Sequence of human CYP2C9 (P11712 whole entry): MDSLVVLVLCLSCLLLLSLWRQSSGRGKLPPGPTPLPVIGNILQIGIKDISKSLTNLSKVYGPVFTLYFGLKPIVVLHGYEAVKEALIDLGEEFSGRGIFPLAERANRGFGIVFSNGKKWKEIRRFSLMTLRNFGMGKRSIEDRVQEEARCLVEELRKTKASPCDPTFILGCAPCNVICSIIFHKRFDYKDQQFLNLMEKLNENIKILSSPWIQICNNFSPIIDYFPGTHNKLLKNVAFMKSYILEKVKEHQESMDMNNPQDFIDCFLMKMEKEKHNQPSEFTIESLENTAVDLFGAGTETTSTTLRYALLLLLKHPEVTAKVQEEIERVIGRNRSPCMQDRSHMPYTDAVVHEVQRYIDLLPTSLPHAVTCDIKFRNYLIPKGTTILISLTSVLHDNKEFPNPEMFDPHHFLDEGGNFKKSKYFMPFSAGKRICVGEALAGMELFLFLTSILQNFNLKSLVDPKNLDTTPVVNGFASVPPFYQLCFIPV
Sequence of human CYP2D6 (P10635 whole entry): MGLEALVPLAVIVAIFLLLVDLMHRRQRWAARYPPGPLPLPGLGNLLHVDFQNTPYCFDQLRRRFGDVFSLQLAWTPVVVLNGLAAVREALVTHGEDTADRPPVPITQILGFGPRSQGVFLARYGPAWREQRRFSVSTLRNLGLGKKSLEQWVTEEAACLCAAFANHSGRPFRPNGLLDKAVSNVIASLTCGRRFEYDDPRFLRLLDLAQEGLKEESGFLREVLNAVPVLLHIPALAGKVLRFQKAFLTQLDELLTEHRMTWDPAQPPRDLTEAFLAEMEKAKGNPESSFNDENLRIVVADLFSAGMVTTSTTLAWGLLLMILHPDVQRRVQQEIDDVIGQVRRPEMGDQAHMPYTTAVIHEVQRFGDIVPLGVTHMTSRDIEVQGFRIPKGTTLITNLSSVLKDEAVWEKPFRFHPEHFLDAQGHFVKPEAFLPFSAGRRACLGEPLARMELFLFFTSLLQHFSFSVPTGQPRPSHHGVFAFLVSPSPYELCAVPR
Sequence of CYP3A4 (P08684 whole entry): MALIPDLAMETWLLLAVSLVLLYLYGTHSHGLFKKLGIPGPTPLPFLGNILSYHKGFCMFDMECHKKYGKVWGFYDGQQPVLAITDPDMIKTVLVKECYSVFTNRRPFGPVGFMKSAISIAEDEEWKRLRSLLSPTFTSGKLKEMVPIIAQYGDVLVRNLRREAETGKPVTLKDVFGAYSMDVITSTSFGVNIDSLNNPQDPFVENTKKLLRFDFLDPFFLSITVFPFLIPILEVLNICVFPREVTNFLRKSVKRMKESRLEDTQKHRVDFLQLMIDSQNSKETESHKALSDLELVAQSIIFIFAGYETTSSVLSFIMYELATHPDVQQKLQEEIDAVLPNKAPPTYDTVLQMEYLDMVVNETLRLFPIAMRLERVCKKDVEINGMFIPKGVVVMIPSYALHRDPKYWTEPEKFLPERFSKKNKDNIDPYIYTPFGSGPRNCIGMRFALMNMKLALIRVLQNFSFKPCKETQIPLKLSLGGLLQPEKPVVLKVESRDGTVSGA

One may read the AC50 as the concentration giving half of the maximal activity seen. High values mean activity only at high concentration, low ones activity at low concentration. Regarding `CCCCOC(=O)COc1ccc(Cl)cc1Cl` [2,4-D 1-butyl ester], the AC50 came to 35.7 ± 4.11 µM at human CYP1A2, 30.5 ± 10 µM on human CYP2C19, 35.6 µM on human CYP2C9 and 2.69 ± 0.56 µM at CYP3A4. For the same molecule, the “CYP2D6 AC50 (half-maximal activity concentration)” value (“CYP2D6 AC50” below) on human CYP2D6 is recorded as “Inactive”.
For the molecule `CC(C)OC(=O)COc1ccc(Cl)cc1Cl` [2,4-D isopropyl ester], the AC50 at human CYP1A2 (setting [1]) came to 13.6 µM; at human CYP2C19 (setting [2]) it was 15.5 µM; on human CYP2C9 (setting [3]), 35 µM; at CYP3A4 (setting [4]), 7.02 µM. For the same molecule, the “CYP2D6 AC50” value on human CYP2D6 was “Inconclusive inhibitor”.
The corresponding values for `CCCCCCC(C=O)=Cc1ccccc1` [2-Benzylideneoctanal] are 13.8 µM, 25.6 µM, 31.1 µM, 7.81 µM and “Inactive”.
Take `O=[N+]([O-])c1ccccc1-c1ccccc1` [2-Nitro-1,1'-biphenyl]: the AC50 on human CYP1A2 (setting [1]) was determined as 1.66 µM; at human CYP2C19 (setting [2]), 30.4 µM; at human CYP2C9 (setting [3]), 22.6 µM; on CYP3A4 (setting [4]), 34.3 µM. Moreover, the “CYP2D6 AC50” value on human CYP2D6 is recorded as “Inactive”.
Consider `O=C(OCCc1ccccc1)c1ccccc1` [2-Phenylethyl benzoate], for which the AC50 at human CYP1A2 was determined as 17.1 µM; on human CYP2C19 it was 13.5 µM; at human CYP2C9, 30.6 µM; on CYP3A4, 7.51 µM. The “CYP2D6 AC50” value at human CYP2D6 is on record as “Inconclusive inhibitor”.
Consider `Nc1cc(Cl)cc(Cl)c1` [3,5-Dichloroaniline], for which the AC50 worked out at 30.7 µM at human CYP1A2 (setting [1]), 17.7 µM at human CYP2C19 (setting [2]), 74.5 µM at human CYP2C9 (setting [3]) and 43.2 µM at CYP3A4 (setting [4]). The “CYP2D6 AC50” value on human CYP2D6 is reported as “Inactive”.
As for `O=C(C=Cc1ccccc1)OCC=Cc1ccccc1` [3-Phenyl-2-propen-1-yl 3-phenylacrylate], the AC50 at human CYP1A2 (setting [1]) came to 25.3 µM; at human CYP2C19 (setting [2]) it was 31.8 µM; at human CYP2C9 (setting [3]), 29.4 µM; on CYP3A4 (setting [4]), 24.9 µM. In addition, the “CYP2D6 AC50” value on human CYP2D6 is given as “Inactive”.
The corresponding values for `Brc1ccc(Oc2ccc(Br)cc2)cc1` [4,4'-Dibromodiphenyl ether] are 18.8 µM, 3.02 µM, 24.6 µM, 28.4 µM and “Inactive”.
Take `O=C(c1ccc(Cl)cc1)c1ccc(Cl)cc1` [4,4'-Dichlorobenzophenone]: the half-maximal activity concentration (AC50) came to 2.34 µM on human CYP1A2 (setting [1]), 1.67 µM on human CYP2C19 (setting [2]), 6.1 µM on human CYP2C9 (setting [3]) and 11 µM at CYP3A4 (setting [4]). The “CYP2D6 AC50” value at human CYP2D6 was “Inactive”.
On to `O=C(c1ccccc1)c1ccc(Cl)cc1` [4-Chlorobenzophenone], for which the AC50 on human CYP1A2 is 3.84 µM; at human CYP2C19 it was 14.7 µM; on human CYP2C9, 50 µM; at CYP3A4 it was 35.6 µM. Also, the “CYP2D6 AC50” value on human CYP2D6 is reported as “Inconclusive inhibitor”.
For the molecule `O=C(/C=C/c1ccccc1)OCc1ccccc1` [Benzyl cinnamate], the AC50 at human CYP1A2 (setting [1]) came to 7.8 µM; at human CYP2C19 (setting [2]) it was 13.6 µM; at human CYP2C9 (setting [3]), 12.4 µM; on CYP3A4 (setting [4]), 21.5 µM. Further, on human CYP2D6, the “CYP2D6 AC50” value is reported as “Inactive”.
The corresponding values for `O=[N+]([O-])C(Br)(CO)CO` [Bronopol] are 14.2 µM, 5.81 µM, 4.61 µM, 5.19 µM and “Inactive”.
For the molecule `CC(C)N(Cc1ccccc1)C(=O)C(C)(C)C` [Butam], the AC50 on human CYP1A2 (setting [1]) was 32.6 µM; at human CYP2C19 (setting [2]), 15.1 µM; at human CYP2C9 (setting [3]), 34.3 µM; on CYP3A4 (setting [4]), 9.61 µM. For the same molecule, the “CYP2D6 AC50” value at human CYP2D6 is recorded as “Inactive”.
On to `C[Si](Cl)(c1ccccc1)c1ccccc1` [Chloro(methyl)diphenylsilane], for which the AC50 on human CYP1A2 (setting [1]) worked out at 32.2 µM; on human CYP2C19 (setting [2]), 2.26 µM; on human CYP2C9 (setting [3]) it was 3.53 µM; at CYP3A4 (setting [4]), 23.4 µM. Also, at human CYP2D6, the “CYP2D6 AC50” value was “Inconclusive inhibitor”.
Regarding `CCOCCOC(=O)C=Cc1ccc(OC)cc1` [Cinoxate], the AC50 was 7.48 µM on human CYP1A2 (setting [1]), 29.2 µM at human CYP2C19 (setting [2]), 13.9 µM at human CYP2C9 (setting [3]) and 21.9 µM at CYP3A4 (setting [4]). Also, the “CYP2D6 AC50” value at human CYP2D6 is reported as “Inactive”.
Consider `CCOC(=O)NC(C)(C)Cc1ccc(Cl)cc1` [Cloforex], for which the AC50 on human CYP1A2 (setting [1]) was 7.64 µM; on human CYP2C19 (setting [2]), 5.34 µM; on human CYP2C9 (setting [3]) it was 15.6 µM; at CYP3A4 (setting [4]), 14.6 µM. The “CYP2D6 AC50” value at human CYP2D6 was “Inconclusive inhibitor”.
Turning to `O=C(c1ccccc1)C1CCCCC1` [Cyclohexylphenylketone], the AC50 was determined as 37.4 µM at human CYP1A2 (setting [1]), 44.9 µM at human CYP2C19 (setting [2]), 47.5 µM on human CYP2C9 (setting [3]) and 29.2 µM at CYP3A4 (setting [4]). Further, the “CYP2D6 AC50” value at human CYP2D6 was “Inactive”.
Turning to `CCCCOC(=O)CCCCC(=O)OCCCC` [Dibutyl hexanedioate], the AC50 was 41.7 µM at human CYP1A2, 57.6 µM on human CYP2C19, 16.1 µM at human CYP2C9 and 15.4 µM at CYP3A4. Further, the “CYP2D6 AC50” value at human CYP2D6 is listed as “Inactive”.
Regarding `COC(=O)C(C)Oc1ccc(Oc2ccc(Cl)cc2Cl)cc1` (stereo not drawn) [Diclofop-methyl], the AC50 at human CYP1A2 (setting [1]) was 38.5 µM; at human CYP2C19 (setting [2]), 6.41 µM; at human CYP2C9 (setting [3]), 27.5 µM; at CYP3A4 (setting [4]), 12.8 µM. Besides, the “CYP2D6 AC50” value on human CYP2D6 is “Inconclusive”.
For `O=C(OCCOCCOC(=O)c1ccccc1)c1ccccc1` [Diethylene glycol dibenzoate], the AC50 at human CYP1A2 (setting [1]) was found to be 8.29 µM; at human CYP2C19 (setting [2]), 34.1 µM; at human CYP2C9 (setting [3]), 12.7 µM; on CYP3A4 (setting [4]) it was 11.4 µM. Moreover, at human CYP2D6, the “CYP2D6 AC50” value is listed as “Inactive”.
Consider `CC(C)OC(=O)c1ccccc1C(=O)OC(C)C` [Diisopropyl phthalate], for which the AC50 on human CYP1A2 (setting [1]) was 3.31 µM; on human CYP2C19 (setting [2]) it was 53.2 µM; on human CYP2C9 (setting [3]) it was 50.4 µM; on CYP3A4 (setting [4]), 31.9 µM. Also, the “CYP2D6 AC50” value at human CYP2D6 is recorded as “Inconclusive inhibitor”.
On to `COC(=O)CCCCCCCCC(=O)OC` [Dimethyl decanedioate], for which the AC50 at human CYP1A2 (setting [1]) is 40.1 µM; on human CYP2C19 (setting [2]) it was 64.5 µM; at human CYP2C9 (setting [3]), 50.5 µM; on CYP3A4 (setting [4]), 38.8 µM. On human CYP2D6, the “CYP2D6 AC50” value was “Inactive”.
As to `O=[N+]([O-])c1cc(C2CCCCC2)c(O)c([N+](=O)[O-])c1` [Dinex], the AC50 at human CYP1A2 (setting [1]) is 71.1 µM; at human CYP2C19 (setting [2]), 39.8 µM; at human CYP2C9 (setting [3]), 8.27 µM; on CYP3A4 (setting [4]) it was 22.5 µM. Moreover, at human CYP2D6, the “CYP2D6 AC50” value is “Inconclusive inhibitor”.
Take `CCC1OCC(COc2ccc(Oc3ccccc3)cc2)O1` (stereo not drawn) [Diofenolan]: the AC50 on human CYP1A2 is 30.8 µM; at human CYP2C19 it was 21 µM; on human CYP2C9, 29.4 µM; on CYP3A4 it was 35.7 µM. Further, on human CYP2D6, the “CYP2D6 AC50” value is reported as “Inconclusive inhibitor”.
In the case of `CN(C)C(=O)C(c1ccccc1)c1ccccc1` [Diphenamid], the AC50 on human CYP1A2 (setting [1]) came out at 50.2 µM; on human CYP2C19 (setting [2]) it was 53.7 µM; at human CYP2C9 (setting [3]), 38.4 µM; at CYP3A4 (setting [4]), 31.2 µM. Moreover, the “CYP2D6 AC50” value on human CYP2D6 is listed as “Inactive”.
Consider `O=C(Oc1ccccc1)c1ccccc1C(=O)Oc1ccccc1` [Diphenyl phthalate], for which the concentration at half-maximal activity (AC50) on human CYP1A2 (setting [1]) was found to be 4.94 µM; at human CYP2C19 (setting [2]), 14.2 µM; on human CYP2C9 (setting [3]), 13.7 µM; at CYP3A4 (setting [4]), 7.65 µM. The “CYP2D6 AC50” value at human CYP2D6 is listed as “Inactive”.
For the molecule `CCCOC(=O)c1ccc(C(=O)OCCC)nc1` [Dipropyl 2,5-pyridinedicarboxylate], the AC50 on human CYP1A2 is 11.3 µM; on human CYP2C19, 5.97 µM; on human CYP2C9, 7.68 µM; at CYP3A4, 31.9 µM. Further, the “CYP2D6 AC50” value at human CYP2D6 is listed as “Inactive”.
`CCCOC(=O)c1ccccc1C(=O)OCCC` [Dipropyl phthalate]: the AC50 stood at 2.38 µM on human CYP1A2 (setting [1]), 7.01 µM at human CYP2C19 (setting [2]), 30 µM on human CYP2C9 (setting [3]) and 9.91 µM on CYP3A4 (setting [4]). Also, at human CYP2D6, the “CYP2D6 AC50” value is listed as “Inactive”.
For `CCOC(=O)Cc1cccc2ccccc12` [Ethyl 1-naphthaleneacetate], the AC50 at human CYP1A2 stood at 16.5 µM; at human CYP2C19, 25.5 µM; at human CYP2C9, 41.5 µM; on CYP3A4 it was 27.5 µM. Further, the “CYP2D6 AC50” value at human CYP2D6 is recorded as “Inactive”.
As to `CCOC(=O)C1OC1(C)c1ccccc1` (stereo not drawn) [Ethyl methylphenylglycidate], the AC50 on human CYP1A2 (setting [1]) was 34.6 µM; on human CYP2C19 (setting [2]), 45.4 µM; at human CYP2C9 (setting [3]) it was 61.4 µM; on CYP3A4 (setting [4]) it was 37.7 µM. Also, the “CYP2D6 AC50” value on human CYP2D6 is on record as “Inconclusive inhibitor”.
